Assay results as given in US10844091B2 (priority 2017, dated 2020).
Marks after values point to notes of the source that are not given here. Non-standard residues stand in square brackets, D forms with d.

Legend:
[1] = tested on: rat models with Alzheimer's disease; assay: Extrapolation escape (EE) test, scopolamine-induced Alzheimer's disease model; format: in vivo
Description: (§1) White random-bred adult male rats weighing 200-240 g were used. Groups of 7 animals per group were formed. 1st group—control, 2nd—pathology, 3rd—comparator drug, 4th-6th—neuropeptides.
(§2) Scopolamine was administered i.p. to the animals in all groups except for the control at a 1 mg/kg dose daily, once a day for 27 days. From the 28th day on, the animals in groups 2 and 3 were administered the comparator drug and the claimed preparation respectively over the course of 10 days. The drugs were administered daily, once a day.
(§3) The tetrapeptides were administered i.n at a 0.1 mg/kg dose. The animals in the pathology group received 0.9% sodium chloride solution i.n. and i.p. as a placebo.
(§4) The OF and EE tests were conducted on the 1st day, PST—on the 2nd day, CPAR—on the 1st and 10th day post treatment with the preparations. […] The antiamnesic action (AA) in the CPAR test was calculated using Butler's formula [K. S. Radionova. […] After that, the animals were removed from the experiment by administering a narcotic, followed by decapitation. The brain was extracted and weighed, and the brain weight coefficient (BWC) was calculated. Immediately after extraction, the brain was frozen in liquid nitrogen and used in subsequent biochemical and histochemical studies. Glucose levels in whole arterial (common carotid artery) and venous (venous cerebral sinus) blood were determined by the glucose oxidase test, the difference in the arterial-venous glucose content was calculated (glucose consumption marker). The levels of average weight molecules—the toxic products of cell biodegradation damaged during the disease (nucleoside derivatives, peptoids, glucuronic acid salts, etc.) in the blood serum (AWM) were calculated [A. N. Kovalevsky. Notes on the screening method of determination average weight molecules/A. N. Kovalevsky, O. Ye. Nifantiev//Lab. Science. […] 35-39].

[2] = tested on: rat models with Alzheimer's disease; assay: Conditioned passive avoidance reflex (CPAR) test, scopolamine-induced Alzheimer's disease model; format: in vivo; conditions: for antiamnesic action (AA) in the CPAR test: Butler's formula, 0.1 mg/kg; for number of animals who reached the CPAR learning criterium: % of total trained animals, criterium at least 180 sec in light area
Description: as §1, §2, §3, §4

malonic aldehyde = assay: Malonic aldehyde content in the brain of rat models with Alzheimer's disease; format: in vivo; conditions: tetrapeptide 0.1 mg/kg
reduced glutathione = assay: Reduced glutathione level in the brain of rat models with Alzheimer's disease; format: in vivo; conditions: tetrapeptide 0.1 mg/kg
Description: (§5) The drugs were administered daily, once a day.
Standard biochemical methods were used to determine the content and activity of antioxidant defense enzymes and products of lipid peroxidation: malonic dialdehyde (MDA) [Modern Biochemistry Methods/[edited by V. N. Orekhovich]; M. Medicine, 1977, 392 pp]; superoxide dismutase (SOD) [O. P. Makarevich Activity of superoxide dismutase in blood in the acute period of various diseases/O. P. Makarevich, P. P. Golikov//Lab. Science, 1983, No 6, pp 24-27]; catalase [Methods for the Determination of Catalase Activity/M. A. Korolyuk, L. I. Ivanova, I. G. Mayorova, et al//Lab. Science, 1988, No 1, pp 16-19]; and reduced glutathione [T. A. Kochetov A Practical Guide to Enzymology. M. Nauka, 1980, 280 pp].

ATP = assay: Brain ATP level in rat models with Alzheimer's disease; format: in vivo; conditions: tetrapeptide 0.1 mg/kg; as a trend
Description: as §5
1966, t. […] M. I. Prokhorova, Leningrad, pub. House LSU, 1982.—pp. 256-258].

[3] = tested on: intact rats and animals with reserpine-induced depression; assay: Popsolt swim test, intact rats and animals with reserpine-induced depression; format: in vivo, rat; conditions: for Number of immobilization episodes / Total duration of immobilization / Latent immobilization period: imipramine 15 mg/kg i.p., tetrapeptide (LYS) 0.02 mg/kg i.n.
Description: The experiment was conducted on 16 white random-bred adult male rats weighing:
180-220 g. The antidepressant activity of tetrapeptide (LYS), a neuroprotector, at a 0.02 mg/kg dose intranasally (i.n.) was evaluated. […] The experiment was conducted in two stages. […] 25-30 min. prior to the start of the experiment, the animals were administered their respective drugs. The animals in the control group were administered 0.9% NaCl solution i.p. and i.n. in the volume equal to the volume of the medications. After that, the animals of all groups were placed in the open field (OF) for 3 min., and their locomotor (number of crossed squares), orientation, and exploratory (number of upright positions and explored openings) activity as well as their emotional reactions (fecal boluses, urination, grooming) were evaluated. The indicators of depression in the animals (latent immobilization period, the number of such instances, and their total duration) were evaluated in the Popsolt swim test (PST) over 6 min. In the next 2 days, all the medications were administered at the same dose once a day; the last administration—30 min before the depressogenic sympatholytics of reserpine. Reserpine was administered on the 3rd day (2nd stage of the experiment) at a 4 mg/kg dose i.p. (as a suspension stabilized with Tween-80). Animals in all 3 groups were evaluated 6-7 hr. later in the OF and PST.
Test results were statistically processed. When the data distribution was normal, the parametric Student's t-distribution test was applied, when it was absent, the non-parametric MannWhitney U-test was used. When processing the results in an alternative form (presence/absence of the indicator), Fisher's angular transformation φ was applied. Wilcoxon paired t-criterium test was used for the intra-group statistical evaluation of the changed in the animal test results prior and post simulated depression. The results were considered to be statistically significant when p<0.05.

[4] = 3 min test, scopolamine 1 mg/kg i.p. 27 days, donepezil 1 mg/kg i.p. 10 days, peptide (LYS) 0.1 mg/kg i.n. 10 days
[5] = R - reserpine-induced depression
[6] = reserpine-induced depression, p<0.05

For “acetyl-D-Lys-Lys-Arg-Arg-amide (Ac-[dK]KRR-NH2; SMILES CC(=O)N[C@H](CCCCN)C(=O)N[C@@H](CCCCN)C(=O)N[C@@H](CCCNC(=N)N)C(=O)N[C@@H](CCCNC(=N)N)C(N)=O) [tetrapeptide (LYS), peptide acetyl-X-ARG-ARG-amide, X = D- and L-amino acid residues of lysine]”, the “reduction of escape time compared to the pathology group” value ([1]; 0.1 mg/kg i.n. 10 days, p<0.05) was 3.8 times, the “escape time difference versus donepezil” value ([1]; 0.1 mg/kg i.n. vs donepezil 1 mg/kg, p<0.05) was 41.7% and the “% of animals succeeded” value [1, 4] was 100%. The Escape time [1, 4] was 11.00 ± 3.07*^ sec, the “antiamnesic action (AA) in the CPAR test” value ([2]; 10th day) was 81.5% and the “increase of latent period compared to the pathology group” value ([2]; 24 hrs. post formation of CPAR) was 79.5%. For the same substance, the “Latent period of entry into the dark area of the CPAR device, In 24 hrs.” value ([2]; In 24 hrs., scopolamine + donepezil 1 mg/kg or tetrapeptide (LYS) 0.1 mg/kg i.n.) was 126.14 ± 23.62 s, the “Latent period of entry into the dark area of the CPAR device, In 10 days” value ([2]; In 10 days, scopolamine + donepezil 1 mg/kg or tetrapeptide (LYS) 0.1 mg/kg i.n.) was 89.71 ± 19.09^ sec and the “Latent period of entry into the dark area of the CPAR device, Initial” value ([2]; Initial, scopolamine + donepezil 1 mg/kg or tetrapeptide (LYS) 0.1 mg/kg i.n.) was 20.14 ± 3.73 s. For the same substance, the “number of animals who reached the CPAR learning criterium” value ([2]; first day) was 42.9%, the “antiamnesic action (AA) in the CPAR test” value ([2]; first day) was 56.5% and the “increase of latent period compared to the pathology group” value ([2]; post 10 days, p<0.05) was 130.9%. The “number of animals who reached the CPAR learning criterium” value ([2]; tenth day) was 14.3%, the “reduction of malonic aldehyde content in the brain relative to the pathology group” value (malonic aldehyde) was 39.8% and the “increase of the level of reduced glutathione in the brain” value (reduced glutathione) was 36.6%. The “brain ATP level” value (ATP) was “increased ATP level”, the “Number of immobilization episodes” value ([3]; I - intact animals) was 1.2 ± 0.6 and the “Total duration of immobilization” value ([3]; I - intact animals) was 4.0 ± 2.7 s. For the same substance, the Latent immobilization period ([3]; I - intact animals, 6 min) was 214.6 ± 66.7 s, the Latent immobilization period [3, 5] was 170.8 ± 34.1 s and the “Number of immobilization episodes” value [3, 5] was 3.0 ± 0.38. For the same substance, the “Total duration of immobilization” value [3, 5] was 7.8 ± 2.3 s, the “Latent immobilization period, % change reserpine-induced depression vs. intact animals” value ([3]; R vs I) was “(−20.4)^ %” and the “Number of immobilization episodes, % change reserpine-induced depression vs. intact animals” value ([3]; R vs I) was “(+150.0%)”. For the same substance, the “Total duration of immobilization, % change reserpine-induced depression vs. intact animals” value ([3]; R vs I) was “(+95.0%)”, the “increase of the latent immobilization period compared to the control” value ([3]; intact animals, p<0.05) was 3.5 times and the “reduction of the number of immobilization periods compared to the control” value ([3]; intact animals, p<0.05) was 11.5 times. For the same substance, the “reduction of total duration of immobilization compared to the control” value ([3]; intact animals, p<0.05) was 16.1 times, the “increase of the latent immobilization period compared to the control” value [3, 6] was 4.5 times and the “reduction of the number of immobilization episodes compared to the control” value [3, 6] was 2.6 times. The “reduction of total duration of immobilization compared to the control” value [3, 6] was 3.6 times.
